Measurements as given in US6509161B1, “Green fluorescent protein” (Gentronix Limited, priority 2000, dated 2003).

Tests used:
[1] = Fluorescence polarisation by flow-injection analysis on the two-PMT apparatus; format: physicochemical; settings: 488 nm excitation, GFP within whole GM-FF18984 yeast cells (0.005 % MMS, 18 hours), HPTSA 1×10^−7 mol l^−1 in phosphate buffer
Protocol: An air cooled argon ion laser (162LGL, LG Laser Graphics GmbH, Dieburg, Germany), provided a 488 nm excitation light beam of 5 mW after filtering (TEM00>95%, beam diameter 0.67±0.05 mm). The light beam is represented by the arrow 1 in FIG. 1. The light beam 1 was plane polarised (>100:1). A four window quartz fluorescence flow cell 2 with an internal volume of 132 μl, specially constructed by Hellma Ltd, Southend-on-Sea, UK was housed in a cubic black plastic mounting block 3 (30×30×30 mm). The mounting block 3 was built at the University of Manchester Institute of Science and Technology. […]
A 488 nm interference filter 7, (3 nm half bandwidth), was used to filter the excitation light beam 1. […] One filter 8, 9 was rotated through 90° with respect to the other, such that one PMT 5 recorded the fluorescence intensity emitted polarised parallel with respect to the excitation beam (Ill), and the other PMT 6 recorded that emitted polarised perpendicular with respect to the excitation beam (Il). […] Additional filters were optimised and used in conjunction with the polarising filters to allow the laser-induced GFP fluorescence at 517 nm to be measured, whilst rejecting the high intensity laser light at 488 nm scattered towards the detector by yeast cells suspended in the stream of liquid passing through the flow cell. […]

[2] = Fluorescence polarisation ratio of fluorophores, commercial fluorescence spectrometer with two polarising filters; format: physicochemical; settings: average of 20 replicate readings, cuvette
Description: A standard commercial fluorescence spectrometer (LS50-B, Perkin Elmer) was used to carry out conventional measurements of fluorescence, scattered light intensity and for obtaining excitation and emission spectra, with a 1 cm path length acrylic cuvette (not shown). A yellow Schott glass filter (not shown) (YG495, thickness=3 mm) was placed within the sample chamber directly in front of the window of a PMT, in order to block excitation light scattered towards the PMT by yeast cells suspended in the cuvette. For fluorescence measurements the excitation and emission wavelengths were 490 and 520 nm respectively. […] Light intensity was recorded in arbitrary units produced directly by the instrument software.
Four fluorophores were chosen, which were close spectroscopic mimics of GFP. […] Using the commercial fluorescence spectrometer (not shown), the fluorescence excitation and emission spectra for each fluorophore and for GFP were obtained. […] HPTSA needed to be used at 20 times the concentration of fluorescein to obtain the same magnitude fluorescence signal.
To measure the fluorescence polarisation ratio (P) of the fluorophores, two polarising filters (not shown) (Grade HN38 polaroid sheet, laminated in rigid acrylic, thickness=3.4 mm) were inserted within the housing 3, one either side of the sample cuvette (Which was used in place of the flow cell 2). […]

SMILES: O=S(=O)([O-])c1cc(O)c2ccc3c(S(=O)(=O)[O-])cc(S(=O)(=O)[O-])c4ccc1c2c34.[Na+].[Na+].[Na+] [HPTSA, 8-hydroxypyrene-1,3,6-trisulfonic acid trisodium salt]
- average fluorescence polarisation ratio (P) [1]: ≈ 0
- difference between Ill and Il [2]: less than 0.5%
